In brackets after ≈: the same amount, converted by molar mass. One block for each compound: values may come before it.
Columns and labels:
[1] = system: P388; test: Concentration required to inhibit mouse P388 cell line growth by 50% at 72 hr continuous exposure; assay type: functional; conditions: P388, 72 h
[2] = system: PC-6; test: Concentration required to inhibit human PC-6 cell line growth by 50% at 72 hr continuous exposure; assay type: functional; conditions: PC-6, 72 h
[3] = system: PC-12; test: Concentration required to inhibit human PC-12 cell line growth by 50% at 72 hr continuous exposure; assay type: functional; conditions: PC-12, 72 h
[4] = system: PC-6; test: Concentration required to inhibit human PC-6/VP1-1 cell line growth by 50% at 72 hr exposure; assay type: functional; conditions: PC-6, 72 h
[5] = system: PC-6; test: Concentration required to inhibit human PC-6/VCR29-9 cell line growth by 50% at 72 hr exposure; assay type: functional; conditions: PC-6, 72 h
[6] = system: B16; test: Effective dose of perorally administered compound against B16 melanoma BL6 cells implanted into mice; assay type: functional; conditions: Mus musculus, B16, po
[7] = system: B16; test: Effective dose of intravenously administered compound against B16 melanoma BL6 cells implanted into mice; assay type: functional; conditions: Mus musculus, B16, iv
[8] = system: Mus musculus; test: Maximum rate of body weight loss after intravenous administration of 7.9 mg/kg of compound in mice; assay type: functional
[9] = system: Mus musculus; test: Antitumor activity of 7.9 mg/kg of intravenously administered compound against B16 melanoma BL6 cells implanted into mice, value reported is percent compared to control; assay type: functional; conditions: route intravenous
[10] = system: Mus musculus; test: Maximum rate of body weight loss after peroral administration of 11.9 mg/kg of compound in mice; <0 indicates no weight loss; assay type: functional; conditions: route oral
[11] = system: Mus musculus; test: Maximum rate of body weight loss after intravenous administration of 17.8 mg/kg of compound in mice; assay type: functional
[12] = system: Mus musculus; test: Maximum rate of body weight loss after peroral administration of 26.7 mg/kg of compound in mice; assay type: functional; conditions: route oral
[13] = system: Mus musculus; test: Maximum rate of body weight loss after intravenous administration of 11.9 mg/kg of compound in mice; <0 indicates no weight loss; assay type: functional
[14] = system: Mus musculus; test: Antitumor activity of 17.8 mg/kg of intravenously administered compound against B16 melanoma BL6 cells implanted into mice, value reported is percent compared to control; assay type: functional; conditions: route intravenous
[15] = system: Mus musculus; test: Effective dose of intravenously administered compound against B16 melanoma BL6 cells implanted into mice; range is 7.9-17.8; assay type: functional; conditions: B16, iv
[16] = system: Mus musculus; test: Number of mice died at 11.9 mg/kg of peroral dose, among the total 6 mice tested; assay type: functional; conditions: route oral
[17] = system: Mus musculus; test: Number of mice died at 11.9 mg/kg of intravenous dose, among the total 6 mice tested; assay type: functional
[18] = system: Mus musculus; test: Effective dose of perorally administered compound against B16 melanoma BL6 cells implanted into mice; range is 11.9-26.7; assay type: functional; conditions: B16, po
[19] = system: Mus musculus; test: Antitumor activity of 26.7 mg/kg of perorally administered compound against B16 melanoma BL6 cells implanted into mice, value reported is percent compared to control; assay type: functional; conditions: route oral
[20] = system: B16; test: Antitumor activity of 11.9 mg/kg of perorally administered compound against B16 melanoma BL6 cells implanted into mice, value reported is percent compared to control; assay type: functional, Mus musculus; conditions: route oral
[21] = system: Mus musculus; test: Antitumor activity of 26.7 mg/kg of intravenously administered compound against B16 melanoma BL6 cells implanted into mice, value reported is percent compared to control; assay type: functional; conditions: route intravenous
[22] = system: Mus musculus; test: Number of mice died at 26.7 mg/kg of intravenous dose of compound among the total 6 mice tested; assay type: functional
[23] = system: Mus musculus; test: Number of mice died at 7.9 mg/kg of intravenous dose of compound among the total 6 mice tested; assay type: functional
[24] = system: Mus musculus; test: Number of mice died at 26.7 mg/kg of peroral dose of compound among the total 6 mice tested; assay type: functional; conditions: route oral
[25] = system: Mus musculus; test: Maximum rate of body weight loss after intravenous administration of 26.7 mg/kg of compound in mice; assay type: functional
[26] = system: Mus musculus; test: Number of mice died at 17.8 mg/kg of intravenous dose among the total 6 mice tested; assay type: functional
[27] = system: B16; test: Antitumor activity of 11.9 mg/kg of intravenously administered compound against B16 melanoma BL6 cells implanted into mice, value reported is percent compared to control; assay type: functional, Mus musculus; conditions: route intravenous
[28] = system: B16; test: Antitumor activity of 17.8 mg/kg of perorally administered compound against B16 melanoma BL6 cells implanted into mice, value reported is percent compared to control; assay type: functional, Mus musculus; conditions: route oral
[29] = system: Mus musculus; test: Number of mice died at 17.8 mg/kg of peroral dose among the total 6 mice tested; assay type: functional; conditions: route oral
[30] = system: Mus musculus; test: Maximum rate of body weight loss after peroral administration of 17.8 mg/kg of compound in mice; assay type: functional; conditions: route oral
[31] = system: Mus musculus; test: Number of mice died at 40.0 mg/kg of peroral dose of compound among the total 6 mice tested; assay type: functional; conditions: route oral
[32] = system: PC-6; test: Concentration that inhibited the growth of PC-6/VCR29-9 cells by 50% at 72 hr continuous exposure; assay type: functional; conditions: Homo sapiens, PC-6, 72 h
[33] = system: Mus musculus; test: Effective dose of perorally administered compound against B16 melanoma BL6 cells implanted into mice; range is 7.9-17.8; assay type: functional; conditions: B16, po
[34] = system: Mus musculus; test: Maximum rate of body weight loss after intravenous administration of 7.9 mg/kg of compound in mice; <0 indicates no weight loss; assay type: functional
[35] = system: Mus musculus; test: Maximum rate of body weight loss after intravenous administration of 11.9 mg/kg of compound in mice; assay type: functional
[36] = system: Mus musculus; test: Maximum rate of body weight loss after peroral administration of 7.9 mg/kg of compound in mice; <0 indicates no body weight loss; assay type: functional; conditions: route oral
[37] = system: Mus musculus; test: Number of mice died at 7.9 mg/kg of peroral dose of compound among the total 6 mice tested; assay type: functional; conditions: route oral
[38] = system: Mus musculus; test: Antitumor activity of 7.9 mg/kg of perorally administered compound against B16 melanoma BL6 cells implanted into mice, value reported is percent compared to control; assay type: functional; conditions: route oral
[39] = system: Mus musculus; test: Maximum rate of body weight loss after peroral administration of 11.9 mg/kg of compound in mice; <0 indicates no body weight loss; assay type: functional; conditions: route oral

Structure (SMILES): CC(=O)O[C@@]12CO[C@@H]1CC[C@@]1(C)[C@@H]3O[C@H](CNC4CC4)O[C@@H]3C3=C(C)[C@@H](OC(=O)[C@H](O)[C@@H](NC(=O)OC(C)(C)C)c4nccs4)C[C@@](O)([C@@H](OCc4ccccc4)[C@@H]12)C3(C)C
GI50 [1]: 0.06 ng/mL (≈ 0.0691 nM)
GI50 [2]: 0.42 ng/mL (≈ 0.484 nM)
GI50 [3]: 0.12 ng/mL (≈ 0.138 nM)
GI50 [4]: 39.4 ng/mL (≈ 45.4 nM)
GI50 [5]: 1.16 ng/mL (≈ 1.34 nM)

Structure (SMILES): COc1ccc([C@H](NC(=O)OC(C)(C)C)[C@@H](O)C(=O)O[C@H]2C[C@@]3(O)[C@@H](OCc4ccccc4)[C@H]4[C@@](C)(CC[C@H]5OC[C@]54OC(C)=O)[C@@H]4O[C@H](CN5CCOCC5)O[C@@H]4C(=C2C)C3(C)C)nc1
ED50 [6]: 13.3 mg/kg
ED50 [7]: 5.9 mg/kg

Structure (SMILES): CC(=O)O[C@@]12CO[C@@H]1CC[C@@]1(C)[C@@H]3O[C@H](CN4CCOCC4)O[C@@H]3C3=C(C)[C@@H](OC(=O)[C@H](O)[C@@H](NC(=O)OC(C)(C)C)c4nccs4)C[C@@](O)([C@@H](OCc4ccccc4)[C@@H]12)C3(C)C
BWLmax [8]: 1.5%
IR [9]: 79.1%
BWLmax [10]: <0%
BWLmax [11]: 7.1%
GI50 [1]: 0.06 ng/mL (≈ 0.0668 nM)
BWLmax [12]: 10%
BWLmax [13]: <0%
IR [14]: 96.9%
ED50 [15]: 17.8 mg/kg
Mortality [16]: 0
GI50 [2]: 0.12 ng/mL (≈ 0.134 nM)
Mortality [17]: 0
GI50 [3]: 0.13 ng/mL (≈ 0.145 nM)
ED50 [18]: 26.7 mg/kg
IR [19]: 97.8%
GI50 [4]: 19.7 ng/mL (≈ 21.9 nM)
IR [20]: 77.9%
IR [21]: 98.3%
Mortality [22]: 2
Mortality [23]: 0
Mortality [24]: 0
BWLmax [25]: 15%
Mortality [26]: 0
IR [27]: 85.7%
IR [28]: 97%
GI50 [5]: 1.37 ng/mL (≈ 1.53 nM)
Mortality [29]: 0
BWLmax [30]: 8.8%
Mortality [31]: 6

Structure (SMILES): CC(=O)O[C@@]12CO[C@@H]1CC[C@@]1(C)[C@@H]3O[C@H](CN(C)C)O[C@@H]3C3=C(C)[C@@H](OC(=O)[C@H](O)[C@@H](NC(=O)OC(C)(C)C)c4ccccn4)C[C@@](O)([C@@H](OCc4ccccc4)[C@@H]12)C3(C)C
IR [9]: 82.3%
ED50 [33]: 17.8 mg/kg
BWLmax [11]: 8.6%
BWLmax [34]: <0%
BWLmax [35]: 1%
GI50 [1]: 0.41 ng/mL (≈ 0.482 nM)
BWLmax [12]: 13.1%
BWLmax [36]: <0%
IR [14]: 97.7%
ED50 [15]: 17.8 mg/kg
Mortality [16]: 0
GI50 [2]: 0.38 ng/mL (≈ 0.447 nM)
Mortality [17]: 0
GI50 [3]: 0.74 ng/mL (≈ 0.871 nM)
IR [19]: 97.5%
GI50 [4]: 54.2 ng/mL (≈ 63.8 nM)
IR [20]: 88.8%
Mortality [37]: 0
Mortality [22]: 6
Mortality [23]: 0
Mortality [24]: 1
Mortality [26]: 0
IR [38]: 72.8%
IR [27]: 95%
IR [28]: 97%
BWLmax [39]: <0%
GI50 [5]: 4.04 ng/mL (≈ 4.75 nM)
Mortality [29]: 0
BWLmax [30]: 8.8%

More lines, main results first:

GI50 [1]: 0.06 ng/mL (≈ 0.0701 nM)
Structure (SMILES): CC(=O)O[C@@]12CO[C@@H]1CC[C@@]1(C)[C@@H]3O[C@H](CN(C)C)O[C@@H]3C3=C(C)[C@@H](OC(=O)[C@H](O)[C@@H](NC(=O)OC(C)(C)C)c4cscn4)C[C@@](O)([C@@H](OCc4ccccc4)[C@@H]12)C3(C)C
GI50 [2]: 0.35 ng/mL (≈ 0.409 nM)
GI50 [3]: 0.19 ng/mL (≈ 0.222 nM)
GI50 [4]: 17.3 ng/mL (≈ 20.2 nM)
GI50 [32]: 1.1 ng/mL (≈ 1.28 nM)

GI50 [1]: 0.07 ng/mL (≈ 0.0818 nM)
Structure (SMILES): CC(=O)O[C@@]12CO[C@@H]1CC[C@@]1(C)[C@@H]3O[C@H](CN(C)C)O[C@@H]3C3=C(C)[C@@H](OC(=O)[C@H](O)[C@@H](NC(=O)OC(C)(C)C)c4cncs4)C[C@@](O)([C@@H](OCc4ccccc4)[C@@H]12)C3(C)C
GI50 [2]: 0.3 ng/mL (≈ 0.35 nM)
GI50 [3]: 0.17 ng/mL (≈ 0.199 nM)
GI50 [4]: 23.8 ng/mL (≈ 27.8 nM)
GI50 [32]: 1.63 ng/mL (≈ 1.9 nM)
